# Experiments:
# [1] = target: T1, PPARγ-LBD / CBP-derived peptide (Homo sapiens, UniProt P37231); assay: PPARγ coactivator (CBP) recruitment assay, HT-FRET; type: biochemical; conditions: for Induction of CBP recruitment by the compound itself: absence of rosiglitazone
# T1 construct: 12 nM recombinant PPARγ-LBD fused to N-terminal GFP as FRET acceptor
# T1 sequence (P37231 238-503 limits assumed): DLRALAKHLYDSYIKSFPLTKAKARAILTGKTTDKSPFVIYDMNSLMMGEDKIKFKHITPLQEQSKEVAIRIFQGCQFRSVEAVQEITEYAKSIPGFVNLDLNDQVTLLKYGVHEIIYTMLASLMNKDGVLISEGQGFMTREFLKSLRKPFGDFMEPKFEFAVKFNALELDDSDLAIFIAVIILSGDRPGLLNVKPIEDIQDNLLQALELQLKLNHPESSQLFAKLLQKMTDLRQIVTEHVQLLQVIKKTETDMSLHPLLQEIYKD
# Source text: Recruitment of coactivator-derived peptides to the PPARγ-LBD was studied by homogeneous time-resolved fluorescence resonance energy transfer (HT-FRET). Terbium cryptate as streptavidin conjugate (Cisbio assays, France) was used as FRET donor. Peptides derived from the coactivator cyclic AMP response element-binding protein (CREB)-binding protein (CBP) [biotin-[…]] encompassing the coactivator consensus motif LxxLL and N-terminal biotin for stable coupling to streptavidin were purchased from Eurogentec GmbH (Cologne, Germany). Solutions containing 12 nM recombinant PPARγ-LBD fused to N-terminal GFP as FRET acceptor and 12 nM FRET donor complex with the CBP-derived peptide as well as 1% DMSO with test compound at varying concentrations or DMSO alone were prepared in HEPES buffer [25 mM HEPES pH 7.5 adjusted with KOH, 150 mM KF, 5% (w/v) glycerol, 0.1% (w/v) CHAPS, 5 mM DTT]. After 2 h incubation at RT, the fluorescence intensities (FI) at 520 nm (acceptor) and 620 nm (donor reference) after excitation at 340 nm were recorded on a Tecan Infinite F200 (Tecan Group Ltd., Männedorf, Switzerland). FI520nm was divided by FI620nm and multiplied with 10,000 giving a dimensionless HTRF signal. Recruitment of coactivator-derived peptides to the PPARγ-LBD was validated with increasing concentrations of rosiglitazone. Recruitment of CBP was referenced to recruitment in response to 1 μM rosiglitazone (∼EC80) and reported as relative coactivator recruitment.
# We induced this post-translational modification by short-term treatment of the differentiated cells with the cytokine TNFα, generating a pro-inflammatory milieu. […] For this, we used an assay system in which the recruitment of the fluorescence-tagged PPARγ coactivator CBP to the PPARγ-LBD was assessed by time-resolved FRET technique in presence and absence of rosiglitazone.
# [2] = system: PPARγ target genes (LPL, GLUT-4, FABP-4, adiponectin) in 3T3-L1 adipocytes; assay: PPARγ target gene mRNA expression in differentiated 3T3-L1 adipocytes (qRT-PCR); type: cell-based, murine; conditions: after 14 days; for mRNA expression of PPARγ target genes (LPL, GLUT-4, FABP-4, adiponectin): normalized to cells with activation cocktail only
# Protocol: 3T3-L1 cells were differentiated into adipocytes for 14 days according to the protocol of [Zebisch et al. (2012)]. For this, cells were seeded in 6-well plates ([…]) and differentiation was induced after 48 h by addition of a differentiation cocktail containing 1 μg/mL insulin, 0.25 μM dexamethasone and 0.5 mM isobutylmethylxanthine (IBMX) in DMEM supplemented with 10% FCS and 1% PS. […] After 2 days, medium was replaced by DMEM supplemented with 10% FCS, 1% PS and 1 μg/mL insulin for 2 more days. Afterwards, cells were kept for lipid droplet accumulation in DMEM containing 10% FCS and 1% PS until day 15. Media were replaced every other day.
# 3T3-L1 cells were lysed using TRIzol® reagent (Ambion Life Technologies, Carlsbad, CA, United States). Subsequently, mRNA was isolated following the manufacturers protocol. DNA contaminations were digested using DNAse (DNase I, RNase-free Kit; Thermo Scientific, Waltham, MA, United States) and mRNA concentrations were determined using a NanoDrop^TM2000 spectrophotometer (Thermo Scientific, Waltham, MA, United States). Afterwards, reverse transcription was performed using the High Capacity RNA-to-cDNA Kit (Applied Biosystems, Foster City, CA, United States) following the manufacturers protocol. […] Relative mRNA expression was determined by the 2^-ΔΔCt method normalized to murine non-POU domain-containing octamer binding protein (Nono). All samples were measured in triplicates and experiments were repeated independently at least three times.
# To gain further insight in PPARγ activation after compound treatment, mature 3T3-L1 adipocytes were harvested after 14 days and mRNA was isolated, reverse transcribed and subjected to quantitative RT-PCR. mRNA expression of the PPARγ target genes lipoprotein lipase (LPL), the glucose transporter 4 (GLUT-4), the fatty acid binding protein 4 (FABP-4) and adiponectin was monitored by quantitative PCR (Figure 3A–D and Supplementary Figure S1). […]
"IC50 ([1]; rosiglitazone 1 μM, after 2 h, read-out: IC50 for antagonism of rosiglitazone induced CBP recruitment) [µM]",Compound,Induction of CBP recruitment by the compound itself [1],Adiponectin mRNA level ([2]; compared to the other target genes),"mRNA expression of PPARγ target genes (LPL, GLUT-4, FABP-4, adiponectin) [2]",Antagonism of rosiglitazone induced CBP recruitment ([1]; presence of rosiglitazone (1 μM))
4.7,"COc1cc(C(=O)NS(=O)(=O)c2ccccc2C)ccc1Cc1cn(C)c2ccc(NC(=O)OC3CCCC3)cc12 [Zafirlukast, zafirlukast]",did not induce CBP recruitment itself,elevated adiponectin levels more effectively compared to the other target genes,dose-dependently induced target gene expression although to a lesser extent compared to rosiglitazone,–
–,"CC(C)(O)c1ccccc1CC[C@@H](SCC1(CC(=O)O)CC1)c1cccc(/C=C/c2ccc3ccc(Cl)cc3n2)c1 [Montelukast, montelukast]",did not induce CBP recruitment itself in concentrations up to 20 μM,–,did not influence the expression,weakly antagonized the rosiglitazone induced CBP recruitment in concentrations above 3 μM
